Values quoted from earlier work as cited in publication PMC2229313 (The Journal of General Physiology, 1996).

System: IFM/QQQ mutant Na channel
Conditions: cytoplasmic application; ref Eaholtz et al., 1994

## KIQMK
  effect on kinetics of IFM/QQQ mutant Na currents: fails to affect the kinetics of the inactivation-impaired Na channel
